The values below come from patent publication US4181802A, “1-(Heterocyclylalkyl)-1,3-dihydro-2-H-benzimidazole-2-ones” (Janssen Pharmaceutica N.V., priority 1978, dated 1980).

The structures appear in SMILES notation.

T1 sequence (H0W3H1 1-470): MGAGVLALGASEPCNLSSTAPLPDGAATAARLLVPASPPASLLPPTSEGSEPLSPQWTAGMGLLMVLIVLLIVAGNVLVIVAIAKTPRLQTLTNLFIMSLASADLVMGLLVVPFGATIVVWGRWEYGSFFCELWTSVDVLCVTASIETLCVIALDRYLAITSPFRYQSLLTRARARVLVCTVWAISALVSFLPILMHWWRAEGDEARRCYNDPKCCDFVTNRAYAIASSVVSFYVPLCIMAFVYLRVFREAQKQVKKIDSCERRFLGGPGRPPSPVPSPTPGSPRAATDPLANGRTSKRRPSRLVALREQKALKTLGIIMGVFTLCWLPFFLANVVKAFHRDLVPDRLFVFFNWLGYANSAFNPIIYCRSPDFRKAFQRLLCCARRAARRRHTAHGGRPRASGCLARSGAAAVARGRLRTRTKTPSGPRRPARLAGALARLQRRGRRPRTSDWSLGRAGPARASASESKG

The first experiment has as its target T1, β-adrenergic receptor (β1), guinea-pig right atrium (Cavia porcellus, UniProt H0W3H1).
T1 construct: Spontaneously beating right atria are dissected from guinea-pigs; from tissue; host or cells: guinea-pig right atrium (strip with sinoatrial node)
Briefly: Guinea-pig right atrium (β1): inhibition of isoprenaline-induced increase in heart rate. It is filed as cell-based. Particulars: Table I, isolated guinea-pig right atrium, drug incubation 30 min, 37.5° C., ED50 estimated graphically. The protocol: 1. GUINEA-PIG RIGHT ATRIUM (β1)
Spontaneously beating right atria are dissected from guinea-pigs (400±50 g). A triangular strip of atrium, including the sinoatrial node is excised together with the anterior vena cava.
The vena is fixed to a glass muscle holder and the opposite atrial muscle is connected to a Grass isometric transducer. Atria are suspended at optimal preload in a 100 ml Krebs-Henseleit solution, containing 2 g/l glucose, at 37.5° C. and aerated with 95% O2 and 5% CO2.
Heart rate and contractile force are recorded by means of a Grass FTO3C isometric transducer. Output signals amplified by an isometric transducer amplifier (J.S.I.) via a cardiotachometer (J.S.I.) are recorded on a Honeywell XYY' recorder. […] This produces a dose related increase in heart rate (a). After washing out isoprenaline a stabilization period of 15 min. is allowed. A drug is then added to the bath fluid for 30 min. During this incubation period possible direct chronotropic and inotropic effects of the drug are determined. Following this, a second dose-response curve for isoprenaline is produced by infusion during 10 minutes (b). The slope of the increase in rate is graphically estimated for each period of isoprenaline addition and the ratio b/a is calculated. Based on solvent experiments a ratio of less than 0.70 is considered as the criterion of inhibitory activity. ED50 -values are estimated graphically.
For the compound `O=c1[nH]c2ccccc2n1CC1CCCN(CC(O)COc2ccc(Cl)cc2)C1` (stereo not drawn) [4-ClC6 H4, H], the IC50 is 48.1 nM.

Turning to `O=c1[nH]c2cc(Cl)ccc2n1CC1CCCN(CC(O)COc2ccc(F)cc2)C1` (stereo not drawn) [4-FC6 H4,5-Cl], the IC50 was 11.5 nM.

As to `O=c1[nH]c2ccc(Cl)cc2n1CC1CCCN(CC(O)COc2ccc(F)cc2)C1` (stereo not drawn) [4-FC6 H4,6-Cl], the IC50 was 11.5 nM.

Take `O=c1[nH]c2ccccc2n1CC1CCCN(CC(O)COc2ccc(F)cc2)C1` (stereo not drawn) [4-FC6 H4, H]: the IC50 was 3.13 nM.

In the case of `O=c1[nH]c2cc(Cl)ccc2n1CC1CCCN(CC(O)COc2ccccc2)C1` (stereo not drawn) [C6 H5,5-Cl], the IC50 is 12 nM.

As for `O=c1[nH]c2cc(F)ccc2n1CC1CCCN(CC(O)COc2ccccc2)C1` (stereo not drawn) [C6 H5,5-F], the IC50 was 3.13 nM.

Turning to `O=c1[nH]c2ccccc2n1CC1CCCN(CC(O)COc2ccccc2)C1` (stereo not drawn) [C6 H5, H], the IC50 was 1.65 nM.

The test system of another experiment is β-adrenergic receptor (β2), guinea-pig tracheal ring. Description: Guinea-pig tracheal ring (β2): inhibition of isoprenaline-induced relaxation. The class given is cell-based. To be noted: Table I; ratio of ED50 tracheal ring / ED50 right atrium. The text has this:
(§1) 2. GUINEA-PIG TRACHEAL RING (β2)
(§2) The trachea is dissected from guinea-pigs (400±50 g). Four rings, approximately 8 mm in width, are then cut from each trachea. Cartilaginous parts of the tracheal ring are mounted horizontally between two metal rods, one of which is attached to a glass organholder, the other rod being connected to a Grass isometric transducer. Using such a technique the tracheal smooth muscle is suspended optimally i.e. midway between the cartilaginous parts. the prepared rings are suspended in a 100 ml organ chamber filled with Tyrode solution, maintained at 35° C. and aerated with 95% O2 and 5% CO2. The preparation is maintained at tension of 1.5 g throughout the experiment. Tension changes recorded are thus an expression of contraction or relaxation. After a stabilization period of 30 min contraction is induced by adding methacholine (1 μg/ml) to the bath for a 10 min period. Addition of isoprenaline (0.08 μg/ml) for 4 min. in the presence of methacholine induces a relaxation of the tracheal ring. This procedure is repeated twice before adding the drug (t-33'; t-19') and once 30 min after addition of the drug. During the incubation period any direct effects of the drug are measured. A 50% inhibition of the agonist-induced response is used as the criterion of effectiveness and ED50 values (with fiducial limits) are determined by probit analysis.
(§3) The ratio of the ED50 -values obtained in respectively the tracheal ring test (β2) and in the right atrium test (β1) may be considered as an index of the cardioselectivity of the test drug.
With `O=c1[nH]c2ccccc2n1CC1CCCN(CC(O)COc2ccc(Cl)cc2)C1` (stereo not drawn) [4-ClC6 H4, H], the “β2/β1 (ratio of the ED50 values, tracheal ring to right atrium; index of cardioselectivity)” value is given as 16.

Take `O=c1[nH]c2cc(Cl)ccc2n1CC1CCCN(CC(O)COc2ccc(F)cc2)C1` (stereo not drawn) [4-FC6 H4,5-Cl]: the “β2/β1 (ratio of the ED50 values, tracheal ring to right atrium; index of cardioselectivity)” value was determined as 62.

Take `O=c1[nH]c2ccc(Cl)cc2n1CC1CCCN(CC(O)COc2ccc(F)cc2)C1` (stereo not drawn) [4-FC6 H4,6-Cl]: the “β2/β1 (ratio of the ED50 values, tracheal ring to right atrium; index of cardioselectivity)” value worked out at 16.

Turning to `O=c1[nH]c2ccccc2n1CC1CCCN(CC(O)COc2ccc(F)cc2)C1` (stereo not drawn) [4-FC6 H4, H], the “β2/β1 (ratio of the ED50 values, tracheal ring to right atrium; index of cardioselectivity)” value was determined as 8.

For `O=c1[nH]c2cc(Cl)ccc2n1CC1CCCN(CC(O)COc2ccccc2)C1` (stereo not drawn) [C6 H5,5-Cl], the “β2/β1 (ratio of the ED50 values, tracheal ring to right atrium; index of cardioselectivity)” value was 16.

Turning to `O=c1[nH]c2cc(F)ccc2n1CC1CCCN(CC(O)COc2ccccc2)C1` (stereo not drawn) [C6 H5,5-F], the “β2/β1 (ratio of the ED50 values, tracheal ring to right atrium; index of cardioselectivity)” value stood at 4.

For the compound `O=c1[nH]c2ccccc2n1CC1CCCN(CC(O)COc2ccccc2)C1` (stereo not drawn) [C6 H5, H], the “β2/β1 (ratio of the ED50 values, tracheal ring to right atrium; index of cardioselectivity)” value is 15.

In the next experiment the target is T2, β-adrenergic receptor (β2), guinea-pig tracheal ring (Cavia porcellus, UniProt Q8K4Z4).
T2 construct: The trachea is dissected from guinea-pigs; from tissue; host or cells: guinea-pig tracheal smooth muscle (rings)
T2 sequence (Q8K4Z4 whole entry): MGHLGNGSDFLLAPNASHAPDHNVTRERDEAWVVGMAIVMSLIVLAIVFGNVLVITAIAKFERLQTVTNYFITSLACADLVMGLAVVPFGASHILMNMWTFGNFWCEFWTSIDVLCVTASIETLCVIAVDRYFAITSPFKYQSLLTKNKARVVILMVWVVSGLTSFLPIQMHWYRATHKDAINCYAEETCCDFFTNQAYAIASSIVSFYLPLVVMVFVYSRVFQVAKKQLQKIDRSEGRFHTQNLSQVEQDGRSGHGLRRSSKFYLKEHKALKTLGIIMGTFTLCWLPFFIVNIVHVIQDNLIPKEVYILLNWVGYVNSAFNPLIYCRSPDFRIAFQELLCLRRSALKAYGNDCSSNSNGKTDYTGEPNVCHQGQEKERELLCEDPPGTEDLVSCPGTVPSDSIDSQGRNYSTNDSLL
The description is as above. It is filed as cell-based. To be noted: Table I; guinea-pig tracheal ring, methacholine 1 μg/ml, isoprenaline 0.08 μg/ml, 30 min after drug, 35° C.; probit analysis; read-out: β2 = ED50 tracheal ring (converted).
Text: as §1, §2, §3
Consider `O=c1[nH]c2ccccc2n1CC1CCCN(CC(O)COc2ccc(Cl)cc2)C1` (stereo not drawn) [4-ClC6 H4, H], for which the IC50 is 769 nM.

With `O=c1[nH]c2cc(Cl)ccc2n1CC1CCCN(CC(O)COc2ccc(F)cc2)C1` (stereo not drawn) [4-FC6 H4,5-Cl], the IC50 is 714 nM.

With `O=c1[nH]c2ccc(Cl)cc2n1CC1CCCN(CC(O)COc2ccc(F)cc2)C1` (stereo not drawn) [4-FC6 H4,6-Cl], the IC50 was 184 nM.

Consider `O=c1[nH]c2ccccc2n1CC1CCCN(CC(O)COc2ccc(F)cc2)C1` (stereo not drawn) [4-FC6 H4, H], for which the IC50 was 25 nM.

Turning to `O=c1[nH]c2cc(Cl)ccc2n1CC1CCCN(CC(O)COc2ccccc2)C1` (stereo not drawn) [C6 H5,5-Cl], the IC50 was 192 nM.

On to `O=c1[nH]c2cc(F)ccc2n1CC1CCCN(CC(O)COc2ccccc2)C1` (stereo not drawn) [C6 H5,5-F], for which the IC50 was 12.5 nM.

Consider `O=c1[nH]c2ccccc2n1CC1CCCN(CC(O)COc2ccccc2)C1` (stereo not drawn) [C6 H5, H], for which the IC50 is 23.3 nM.
